{"source": "paper PMC8659069", "about": "“Optimization of 4-Anilinoquinolines as Dengue Virus Inhibitors” (Molecules, 2021)", "data": [{"system": "DENV2", "assay": "microbe, parasite or virus in culture", "format": "cell-based, dengue virus (DENV2, New Guinea C strain)", "settings": "Dengue virus, DENV2, Huh-7, 48 h, read-out: DENV Inhibition EC50", "units": {"EC50": "µM"}, "values": [{"compound": "Fc1ccc2c(c1Nc1ccnc3ccc(Br)cc13)OCO2", "note": "[Compound 32]", "EC50": 1.9}, {"compound": "COc1cccc(Nc2ccnc3ccc(Br)cc23)c1OC", "note": "[Compound 33]", "EC50": 7.8}, {"compound": "FC1(F)Oc2cccc(Nc3ccnc4ccc(Br)cc34)c2O1", "note": "[Compound 34]", "EC50": 7.1}, {"compound": "Brc1ccc2nccc(Nc3cccc4c3CCO4)c2c1", "note": "[Compound 35]", "EC50": 0.95}, {"compound": "Brc1ccc2nccc(Nc3cccc4c3OCC4)c2c1", "note": "[Compound 36]", "EC50": 5.7}, {"compound": "Brc1ccc2nccc(Nc3cccc4cnoc34)c2c1", "note": "[Compound 39]", "EC50": "> 10"}, {"compound": "Brc1ccc2nccc(Nc3cccc4oncc34)c2c1", "note": "[Compound 40]", "EC50": "> 10"}, {"compound": "Brc1ccc2nccc(Nc3cccc4ncoc34)c2c1", "note": "[Compound 41]", "EC50": 3.2}, {"compound": "Brc1ccc2nccc(Nc3cccc4scnc34)c2c1", "note": "[Compound 42]", "EC50": "> 10"}, {"compound": "Brc1ccc2nccc(Nc3cccc4sccc34)c2c1", "note": "[Compound 43]", "EC50": 2.9}, {"compound": "Brc1ccc2nccc(Nc3cccc4nonc34)c2c1", "note": "[Compound 44]", "EC50": 9.2}, {"compound": "Brc1ccc2nccc(Nc3cccc4nsnc34)c2c1", "note": "[Compound 45]", "EC50": 5.8}, {"compound": "Cn1nnc2c(Nc3ccnc4ccc(Br)cc34)cccc21", "note": "[Compound 46]", "EC50": "~5"}, {"compound": "Cn1ncc2c(Nc3ccnc4ccc(Br)cc34)cccc21", "note": "[Compound 47]", "EC50": "~5"}, {"compound": "Brc1ccc2nccc(Nc3cccc4[nH]ncc34)c2c1", "note": "[Compound 48]", "EC50": 2.1}, {"compound": "Brc1ccc2nccc(Nc3ccc4cn[nH]c4c3)c2c1", "note": "[Compound 49]", "EC50": 1.8}, {"compound": "Fc1cc2cn[nH]c2cc1Nc1ccnc2ccc(Br)cc12", "note": "[Compound 50, 6-bromo-N-(5-fluoro-1H-indazol-6-yl)quinolin-4-amine]", "EC50": 0.69}, {"compound": "Brc1ccc2nccc(Nc3ccc4[nH]ncc4c3)c2c1", "note": "[Compound 51]", "EC50": 1.2}, {"compound": "O=C1NCc2ccc(Nc3ccnc4ccc(Br)cc34)cc21", "note": "[Compound 52, 6-((6-bromoquinolin-4-yl)amino)isoindolin-1-one]", "EC50": 0.64}, {"compound": "O=c1[nH]c2ccc(Nc3ccnc4ccc(Br)cc34)cc2[nH]1", "note": "[Compound 53]", "EC50": "> 10"}, {"compound": "O=c1[nH]c2cc(Nc3ccnc4ccc(Br)cc34)ccc2o1", "note": "[Compound 54]", "EC50": "> 10"}, {"compound": "Cn1c(=O)[nH]c2cc(Nc3ccnc4ccc(Br)cc34)ccc21", "note": "[Compound 55]", "EC50": 7.1}, {"compound": "O=S1(=O)Cc2ccc(Nc3ccnc4ccc(Br)cc34)cc2C1", "note": "[Compound 56]", "EC50": 6.3}, {"compound": "CCN(CC)CCNC(=O)c1c(C)[nH]c(/C=C2\\C(=O)Nc3ccc(F)cc32)c1C", "note": "[Sunitinib, sunitinib, reference compound]", "EC50": 1.1}]}, {"system": "DENV2", "assay": "microbe, parasite or virus in culture", "format": "cell-based, dengue virus (DENV2, New Guinea C strain)", "settings": "Dengue virus, DENV2, Huh-7, 48 h, read-out: DENV Inhibition EC90", "units": {"EC90": "µM"}, "values": [{"compound": "Fc1cc2cn[nH]c2cc1Nc1ccnc2ccc(Br)cc12", "note": "[Compound 50, 6-bromo-N-(5-fluoro-1H-indazol-6-yl)quinolin-4-amine]", "EC90": 3.98}, {"compound": "O=C1NCc2ccc(Nc3ccnc4ccc(Br)cc34)cc21", "note": "[Compound 52, 6-((6-bromoquinolin-4-yl)amino)isoindolin-1-one]", "EC90": 1.51}, {"compound": "CCN(CC)CCNC(=O)c1c(C)[nH]c(/C=C2\\C(=O)Nc3ccc(F)cc32)c1C", "note": "[Sunitinib, sunitinib, reference compound]", "EC90": "> 10"}]}, {"system": "DENV2", "assay": "microbe, parasite or virus in culture", "format": "cell-based, dengue virus (DENV2, New Guinea C strain)", "settings": "read-out: DENV Inhibition EC50", "units": {"EC50": "µM"}, "values": [{"compound": "Cn1nnc2c(Nc3ccnc4ccc(Br)cc34)cccc21", "note": "[Compound 46]", "EC50": 5.5}, {"compound": "Cn1ncc2c(Nc3ccnc4ccc(Br)cc34)cccc21", "note": "[Compound 47]", "EC50": 5.4}]}, {"system": "DENV2", "assay": "microbe, parasite or virus in culture", "format": "cell-based, dengue virus (DENV2, New Guinea C strain)", "settings": "read-out: DENV Inhibition EC90", "units": {"EC90": "µM"}, "values": [{"compound": "Fc1cc2cn[nH]c2cc1Nc1ccnc2ccc(Br)cc12", "note": "[Compound 50, 6-bromo-N-(5-fluoro-1H-indazol-6-yl)quinolin-4-amine]", "EC90": 4}, {"compound": "O=C1NCc2ccc(Nc3ccnc4ccc(Br)cc34)cc21", "note": "[Compound 52, 6-((6-bromoquinolin-4-yl)amino)isoindolin-1-one]", "EC90": 1.5}]}, {"system": "not listed separately", "assay": "in vitro", "settings": "human", "units": {"CC50 at 48 h": "µM", "CC50": "µM"}, "values": [{"compound": "Fc1ccc2c(c1Nc1ccnc3ccc(Br)cc13)OCO2", "note": "[Compound 32]", "CC50 at 48 h": "> 10"}, {"compound": "COc1cccc(Nc2ccnc3ccc(Br)cc23)c1OC", "note": "[Compound 33]", "CC50 at 48 h": "> 10"}, {"compound": "FC1(F)Oc2cccc(Nc3ccnc4ccc(Br)cc34)c2O1", "note": "[Compound 34]", "CC50": "> 10"}, {"compound": "Brc1ccc2nccc(Nc3cccc4c3CCO4)c2c1", "note": "[Compound 35]", "CC50": "> 10"}, {"compound": "Brc1ccc2nccc(Nc3cccc4c3OCC4)c2c1", "note": "[Compound 36]", "CC50 at 48 h": "> 10"}, {"compound": "Brc1ccc2nccc(Nc3cccc4cnoc34)c2c1", "note": "[Compound 39]", "CC50 at 48 h": "> 10"}, {"compound": "Brc1ccc2nccc(Nc3cccc4oncc34)c2c1", "note": "[Compound 40]", "CC50 at 48 h": "> 10"}, {"compound": "Brc1ccc2nccc(Nc3cccc4ncoc34)c2c1", "note": "[Compound 41]", "CC50": "> 10"}, {"compound": "Brc1ccc2nccc(Nc3cccc4scnc34)c2c1", "note": "[Compound 42]", "CC50": "> 10"}, {"compound": "Brc1ccc2nccc(Nc3cccc4sccc34)c2c1", "note": "[Compound 43]", "CC50": "> 10"}, {"compound": "Brc1ccc2nccc(Nc3cccc4nonc34)c2c1", "note": "[Compound 44]", "CC50 at 48 h": "> 10"}, {"compound": "Brc1ccc2nccc(Nc3cccc4nsnc34)c2c1", "note": "[Compound 45]", "CC50 at 48 h": "> 10"}, {"compound": "Cn1nnc2c(Nc3ccnc4ccc(Br)cc34)cccc21", "note": "[Compound 46]", "CC50 at 48 h": "> 10"}, {"compound": "Cn1ncc2c(Nc3ccnc4ccc(Br)cc34)cccc21", "note": "[Compound 47]", "CC50 at 48 h": "> 10"}, {"compound": "Brc1ccc2nccc(Nc3cccc4[nH]ncc34)c2c1", "note": "[Compound 48]", "CC50 at 48 h": "> 10"}, {"compound": "Brc1ccc2nccc(Nc3ccc4cn[nH]c4c3)c2c1", "note": "[Compound 49]", "CC50": "> 10"}, {"compound": "Fc1cc2cn[nH]c2cc1Nc1ccnc2ccc(Br)cc12", "note": "[Compound 50, 6-bromo-N-(5-fluoro-1H-indazol-6-yl)quinolin-4-amine]", "CC50": "> 10"}, {"compound": "Brc1ccc2nccc(Nc3ccc4[nH]ncc4c3)c2c1", "note": "[Compound 51]", "CC50 at 48 h": "> 10"}, {"compound": "O=C1NCc2ccc(Nc3ccnc4ccc(Br)cc34)cc21", "note": "[Compound 52, 6-((6-bromoquinolin-4-yl)amino)isoindolin-1-one]", "CC50 at 48 h": "> 10"}, {"compound": "O=c1[nH]c2ccc(Nc3ccnc4ccc(Br)cc34)cc2[nH]1", "note": "[Compound 53]", "CC50 at 48 h": "> 10"}, {"compound": "O=c1[nH]c2cc(Nc3ccnc4ccc(Br)cc34)ccc2o1", "note": "[Compound 54]", "CC50": "> 10"}, {"compound": "Cn1c(=O)[nH]c2cc(Nc3ccnc4ccc(Br)cc34)ccc21", "note": "[Compound 55]", "CC50 at 48 h": "> 10"}, {"compound": "O=S1(=O)Cc2ccc(Nc3ccnc4ccc(Br)cc34)cc2C1", "note": "[Compound 56]", "CC50 at 48 h": "> 10"}, {"compound": "CCN(CC)CCNC(=O)c1c(C)[nH]c(/C=C2\\C(=O)Nc3ccc(F)cc32)c1C", "note": "[Sunitinib, sunitinib, reference compound]", "CC50": "> 10"}]}, {"system": "not listed separately", "assay": "in vitro", "settings": "human", "remark": "another data set of the same source", "units": {"CC50": "µM"}, "values": [{"compound": "Fc1cc2cn[nH]c2cc1Nc1ccnc2ccc(Br)cc12", "note": "[Compound 50, 6-bromo-N-(5-fluoro-1H-indazol-6-yl)quinolin-4-amine]", "CC50": "> 10"}, {"compound": "O=C1NCc2ccc(Nc3ccnc4ccc(Br)cc34)cc21", "note": "[Compound 52, 6-((6-bromoquinolin-4-yl)amino)isoindolin-1-one]", "CC50": "> 10"}, {"compound": "CCN(CC)CCNC(=O)c1c(C)[nH]c(/C=C2\\C(=O)Nc3ccc(F)cc32)c1C", "note": "[Sunitinib, sunitinib, reference compound]", "CC50": "> 10"}]}, {"system": "VEEV (TC-83)", "assay": "microbe, parasite or virus in culture", "format": "cell-based, Venezuelan Equine Encephalitis virus", "settings": "not given", "values": [{"compound": "Fc1cc2cn[nH]c2cc1Nc1ccnc2ccc(Br)cc12", "note": "[Compound 50, 6-bromo-N-(5-fluoro-1H-indazol-6-yl)quinolin-4-amine]", "reduction in potency against VEEV relative to DENV": "4-8 fold"}, {"compound": "O=C1NCc2ccc(Nc3ccnc4ccc(Br)cc34)cc21", "note": "[Compound 52, 6-((6-bromoquinolin-4-yl)amino)isoindolin-1-one]", "reduction in potency against VEEV relative to DENV": "4-8 fold"}]}, {"system": "VEEV (TC-83)", "assay": "microbe, parasite or virus in culture", "format": "cell-based, Venezuelan Equine Encephalitis virus", "settings": "Venezuelan equine encephalitis virus, U-87 MG, 18 h, read-out: VEEV Inhibition EC50", "units": {"EC50": "µM"}, "values": [{"compound": "Fc1cc2cn[nH]c2cc1Nc1ccnc2ccc(Br)cc12", "note": "[Compound 50, 6-bromo-N-(5-fluoro-1H-indazol-6-yl)quinolin-4-amine]", "EC50": 2.3}, {"compound": "O=C1NCc2ccc(Nc3ccnc4ccc(Br)cc34)cc21", "note": "[Compound 52, 6-((6-bromoquinolin-4-yl)amino)isoindolin-1-one]", "EC50": 3.6}, {"compound": "CCN(CC)CCNC(=O)c1c(C)[nH]c(/C=C2\\C(=O)Nc3ccc(F)cc32)c1C", "note": "[Sunitinib, sunitinib, reference compound]", "EC50": 4.4}]}, {"system": "VEEV (TC-83)", "assay": "microbe, parasite or virus in culture", "format": "cell-based, Venezuelan Equine Encephalitis virus", "settings": "Venezuelan equine encephalitis virus, U-87 MG, 18 h, read-out: VEEV Inhibition EC90", "units": {"EC90": "µM"}, "values": [{"compound": "Fc1cc2cn[nH]c2cc1Nc1ccnc2ccc(Br)cc12", "note": "[Compound 50, 6-bromo-N-(5-fluoro-1H-indazol-6-yl)quinolin-4-amine]", "EC90": 9.6}, {"compound": "O=C1NCc2ccc(Nc3ccnc4ccc(Br)cc34)cc21", "note": "[Compound 52, 6-((6-bromoquinolin-4-yl)amino)isoindolin-1-one]", "EC90": "> 10"}, {"compound": "CCN(CC)CCNC(=O)c1c(C)[nH]c(/C=C2\\C(=O)Nc3ccc(F)cc32)c1C", "note": "[Sunitinib, sunitinib, reference compound]", "EC90": "> 10"}]}, {"system": "DENV", "assay": "not given", "design": "method as in PMID 28240606, PMID 22448770, PMID 26039671, PMID 19223625, PMID 32631507", "settings": "serotype 2; erlotinib in Huh7 (Figure 2); ref [14],[29],[30],[31],[32],[33]; read-out: DENV EC50 (previously reported); cited from earlier work", "units": {"EC50": "µM"}, "values": [{"compound": "CC(C)(C)Oc1cccc2nc(N)nc(N)c12", "note": "[Compound 1]", "EC50": 0.0028}, {"compound": "Clc1ccc(-c2ccc(-c3nc(NCc4cccnc4)nc4ccccc34)s2)cc1", "note": "[Compound 2]", "EC50": 0.07}, {"compound": "COc1cc(Nc2c(C#N)cnc3ccc(I)cc23)cc(OC)c1OC", "note": "[Compound 3]", "EC50": 0.079}, {"compound": "C#Cc1cccc(Nc2ncnc3cc(OCCOC)c(OCCOC)cc23)c1", "note": "[Erlotinib, erlotinib]", "EC50": 6.5}]}, {"system": "not listed separately", "assay": "in vitro", "settings": "African green monkey", "units": {"CC50": "µM"}, "values": [{"compound": "Fc1cc2cn[nH]c2cc1Nc1ccnc2ccc(Br)cc12", "note": "[Compound 50, 6-bromo-N-(5-fluoro-1H-indazol-6-yl)quinolin-4-amine]", "CC50": "> 10"}, {"compound": "O=C1NCc2ccc(Nc3ccnc4ccc(Br)cc34)cc21", "note": "[Compound 52, 6-((6-bromoquinolin-4-yl)amino)isoindolin-1-one]", "CC50": "> 10"}, {"compound": "CCN(CC)CCNC(=O)c1c(C)[nH]c(/C=C2\\C(=O)Nc3ccc(F)cc32)c1C", "note": "[Sunitinib, sunitinib, reference compound]", "CC50": "> 10"}]}]}
